Assay results as given in PubChem BioAssay AID493102 (Broad Institute, 2011).

These compounds were tested on SK-MEL-5 TRPM1-promoter luciferase reporter, 24 h (assay: TRPM1 promoter luciferase signal decrease, dose response, MITF inhibitor project, cell-based, SK-MEL-5, cherry-picked, set 4 (AID 493102);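 further: actives lower the luciferase signal so the potency reflects inhibition of reporter expression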).

Question: Which AC50 does the source give for `CN(C)CCCNC(=O)/C(=C\c1ccc(-c2ccc(Br)cc2)o1)NC(=O)c1ccccc1` here?
Answer: 7.51 µM

Question: How did the AC50 turn out when `Cc1cc(C)cc(NS(=O)(=O)c2ccc3c(c2)c(=O)n(C)c(=O)n3C)c1` was run?
Answer: 4.67 µM

Question: Which AC50 does the source give for `O=C(Nc1nc(-c2ccccn2)cs1)c1ccccc1-n1cnnn1` here?
Answer: 6.96 µM

Question: With `CC(=O)OCCCNc1cc(Sc2ccc(Cl)cc2)c2nonc2c1[N+](=O)[O-]` as the compound, how does the AC50 read?
Answer: 10.9 µM

Question: With `COc1cc2c(cc1/C=C/[N+](=O)[O-])OCO2` as the compound, how does the AC50 read?
Answer: 8.98 µM

Question: Which AC50 does the source give for `Cc1ccccc1C(=O)N/N=C/c1ccc([N+](=O)[O-])s1` here?
Answer: 1.88 µM

Question: `Cc1c(C#N)c(O)n(CCO)c(=O)c1N=Nc1ccc2c(c1)COC2=O` was tested. Which AC50 did it give?
Answer: 9.69 µM

Question: How did the AC50 turn out when `O=C(Nc1nc2cc3c(cc2s1)OCO3)C1=COCCO1` was run?
Answer: 3.77 µM

Question: `CCc1ccc(NC2=CC(=O)C(=O)c3ccccc32)cc1` was tested. Which AC50 did it give?
Answer: 3.59 µM

Question: With `Cc1cc(C)c2ccc(N)nc2c1O` as the compound, how does the AC50 read?
Answer: 9.58 µM

Question: Which AC50 does the source give for `CN(C)C1CCN(Cc2cc(COCc3ccccc3)c3cccnc3c2O)C1` (stereo unspecified) here?
Answer: 9.99 µM

Question: For `Cc1cc(C(=O)Nc2cccc(C(=O)O)c2)oc1C`, which AC50 is on record?
Answer: 4.35 µM

Question: Which AC50 does the source give for `O=C(NC1CCCCC1)C(c1cccnc1)N(C(=O)CCl)c1cccc(Cl)c1` (stereo unspecified) here?
Answer: 4.16 µM

Question: How did the AC50 turn out when `Cc1ccc(NCC(=O)N/N=C\c2ccc([N+](=O)[O-])o2)cc1` was run?
Answer: 19.1 µM

Question: Which AC50 does the source give for `Cn1nnnc1Sc1ncnc2scc(-c3cccs3)c12` here?
Answer: 7 µM

Question: With `Cc1ccc2c(C(=O)CCl)c(C)[nH]c2c1` as the compound, how does the AC50 read?
Answer: 8.17 µM

Question: `CC1C/C(=C\c2cccnc2)C(=O)/C(=C/c2cccnc2)C1` (stereo unspecified) was tested. Which AC50 did it give?
Answer: 2.66 µM

Question: With `COc1cccc(-c2csc3ncnc(Sc4nnnn4C)c23)c1` as the compound, how does the AC50 read?
Answer: 25 µM

Question: Which AC50 does the source give for `Cc1cc(NCCCn2ccnc2)n2ncc(-c3ccccc3)c2n1` here?
Answer: 11 µM

Question: How did the AC50 turn out when `CC(C)(C)c1ccc(Cn2c(=N)n(CC(O)c3ccco3)c3ccccc32)cc1` (stereo unspecified) was run?
Answer: 11.8 µM

Question: With `COCCn1c(C)cc(C(=O)COC(=O)c2ccccc2Br)c1C` as the compound, how does the AC50 read?
Answer: 1.14 µM

Question: For `O=C1C(Cl)=C(Nc2ccccc2)C(=O)c2ccccc21`, which AC50 is on record?
Answer: 2.88 µM

Question: With `CC(C)n1cc(/C=C/c2cc[n+](C)cc2)c2ccccc21` as the compound, how does the AC50 read?
Answer: 8.14 µM

Question: For `BrC(=C\c1ccccc1)/C=N/n1cnnc1`, which AC50 is on record?
Answer: 7.26 µM

Question: `COc1ccc(C(=O)/C=C/C(=O)N(CC(=O)NC2CCCCC2)CC2CCCO2)c(O)c1` (stereo unspecified) was tested. Which AC50 did it give?
Answer: 4.01 µM

Question: `CCOc1ccc(NC(=O)c2ccccn2)cc1` was tested. Which AC50 did it give?
Answer: 4.4 µM

Question: Which AC50 does the source give for `O=C1c2ccccc2S(=O)(=O)N1Cc1nc2ccccc2s1` here?
Answer: 2.7 µM

Question: For `CCOc1ccccc1NC(=O)C(=O)N/N=C/c1cc(Br)ccc1O`, which AC50 is on record?
Answer: 3.34 µM

Question: For `COc1ccccc1NS(=O)(=O)c1cc(NC(=O)c2ccc(Cl)nc2)ccc1Cl`, which AC50 is on record?
Answer: 11.3 µM

Question: Which AC50 does the source give for `Cc1ccc(C)c(S(=O)(=O)N2CCN(Cc3ccc(O)c4ncccc34)CC2)c1` here?
Answer: 4.44 µM

Question: How did the AC50 turn out when `O=C(Nc1ccc(S(=O)(=O)N2CCCCCC2)cc1)c1[nH]ncc1[N+](=O)[O-]` was run?
Answer: 4.02 µM

Question: How did the AC50 turn out when `O=C(N/N=C/c1ccc(F)cc1)c1c(O)c2ccccc2[nH]c1=O` was run?
Answer: 9.64 µM

Question: Which AC50 does the source give for `CC(=NNc1nc2ccccc2o1)c1cc2ccccc2cn1` here?
Answer: 0.175 µM

Question: `Cc1ccc(NC(=O)c2ncn(CCCN[C@H](C)c3cccc4ccccc34)n2)cc1C` was tested. Which AC50 did it give?
Answer: 22.7 µM

Question: How did the AC50 turn out when `O=C(COC(=O)c1ccccc1C(=O)c1ccc(Cl)c([N+](=O)[O-])c1)NC1CC1` was run?
Answer: 8.92 µM

Question: For `Cc1nc2ccccn2c1C(=O)N/N=C/c1ccc([N+](=O)[O-])o1`, which AC50 is on record?
Answer: 8.03 µM

Question: Which AC50 does the source give for `O=C(CCl)N(c1ccccc1)C1CCCCC1` here?
Answer: 4.51 µM

Question: For `COc1ccccc1OCCN1CSC(=S)N(C)C1`, which AC50 is on record?
Answer: 12.2 µM

Question: Which AC50 does the source give for `CC(C)(C)c1ccc(-c2cn(-c3ccc(Br)cc3)c3[n+]2CCCS3)cc1` here?
Answer: 3.2 µM

Question: With `COc1cc(SC)ccc1C(=O)Nc1ccc(Br)cn1` as the compound, how does the AC50 read?
Answer: 7.36 µM

Question: With `COc1cc(C2C(C#N)=C(N)Oc3cc4c(cc32)OCO4)cc(OC)c1OC` (stereo unspecified) as the compound, how does the AC50 read?
Answer: 0.365 µM

Question: For `COc1cccc2c1C(=O)C=C(C)C2=O`, which AC50 is on record?
Answer: 7.83 µM

Question: How did the AC50 turn out when `CCc1cc[n+](C2=C([O-])c3ccccc3C(=O)/C2=N\S(=O)(=O)c2cccs2)cc1` was run?
Answer: 1.15 µM

Question: For `O=C(Nc1ccc(N2CCCC2)c(Cl)c1)c1ccc([N+](=O)[O-])o1`, which AC50 is on record?
Answer: 11.1 µM

Question: With `O=C(Cn1ncc(Cl)c(Cl)c1=O)N1CCOCC1` as the compound, how does the AC50 read?
Answer: 9.82 µM

Question: Which AC50 does the source give for `Cc1ccc(-c2cn3nc(C)c(C)nc3n2)cc1` here?
Answer: 5.3 µM

Question: For `CCN1CCc2c(sc(NC(=O)c3ccc(S(=O)(=O)N4CCCC4)cc3)c2C(=O)NC)C1`, which AC50 is on record?
Answer: 9.14 µM

Question: `CCOC(=O)Cn1cc([N+](=O)[O-])nc1[N+](=O)[O-]` was tested. Which AC50 did it give?
Answer: 29.5 µM

Question: How did the AC50 turn out when `O=C(N/N=C/c1ccc([N+](=O)[O-])s1)c1ccccc1Br` was run?
Answer: 3.65 µM

Question: `CC1(C)Cc2ccccc2C2=NNC(=O)C2=N1` was tested. Which AC50 did it give?
Answer: 3.62 µM

Question: `CCC(=O)NC(c1ccccc1OC)c1ccc2cccnc2c1O` (stereo unspecified) was tested. Which AC50 did it give?
Answer: 6.7 µM

Question: Which AC50 does the source give for `CC1CCC(C(C)C)C(OC(=O)Cn2c(-c3ccc(Br)cc3)[n+](C)c3ccccc32)C1` (stereo unspecified) here?
Answer: 7.12 µM

Question: `COc1cccc(/C=N/Nc2ncnc3c2ncn3Cc2ccccc2)c1O` was tested. Which AC50 did it give?
Answer: 4.6 µM

Question: How did the AC50 turn out when `O=C(Cn1ncc(Cl)c(Cl)c1=O)N1CCc2ccccc21` was run?
Answer: 6.1 µM

Question: `Cn1cc(C(=O)N/N=C/c2c(O)ccc3ccccc23)ccc1=O` was tested. Which AC50 did it give?
Answer: 2.55 µM

Question: `CCOC(=O)c1c(NC(C)=O)sc2c(OCC(O)CNC(C)(C)C)c(Br)ccc12` (stereo unspecified) was tested. Which AC50 did it give?
Answer: 7.72 µM

Question: With `Cc1nn(-c2ccccc2Cl)c(Cl)c1/C=N/Nc1cccc(C(=O)O)c1` as the compound, how does the AC50 read?
Answer: 5.5 µM

Question: With `O=C(O)c1cccc(N/N=C/c2cccs2)c1` as the compound, how does the AC50 read?
Answer: 1.51 µM

Question: `CC(C)C1CC(CCNCc2ccc(N(C)C)cc2)(c2ccccc2)CCO1` (stereo unspecified) was tested. Which AC50 did it give?
Answer: 11.1 µM

Question: With `Cc1nc2ccccn2c1C(=O)/C=C/c1cccc([N+](=O)[O-])c1` as the compound, how does the AC50 read?
Answer: 6.9 µM

Question: For `O=C1NC(=O)N(CCc2ccc(F)cc2)C(=O)/C1=C\C=C\c1ccccc1`, which AC50 is on record?
Answer: 8.26 µM

Question: For `O=C1NC(=S)NC(=O)C1=Cc1cccc2cc3ccccc3cc12`, which AC50 is on record?
Answer: 4.81 µM

Question: Which AC50 does the source give for `O=C(CSc1ccc(Cl)cc1)NC1CCCC1` here?
Answer: 14.2 µM

Question: With `Cc1ccc(-c2c[n+](Cc3cccc(Cl)c3)c3n2CCC3)cc1` as the compound, how does the AC50 read?
Answer: 12.2 µM

Question: For `Cc1ccc(/C=N/Nc2ccc(C(=O)O)cc2)s1`, which AC50 is on record?
Answer: 3.3 µM

Question: Which AC50 does the source give for `NCCCNc1nc(N)c([N+](=O)[O-])c(NC2CCCCC2)n1` here?
Answer: 6.36 µM

Question: For `CCN(Cc1ccccc1)c1ccc(/C=N/N=C(N)N)cc1`, which AC50 is on record?
Answer: 6.37 µM

Question: Which AC50 does the source give for `COc1ccc(C(NC(C)=O)c2ccc3cccnc3c2O)c(OC)c1` (stereo unspecified) here?
Answer: 5.15 µM

Question: With `Cc1ccc(S(=O)(=O)Nc2cccc3cccnc23)cc1` as the compound, how does the AC50 read?
Answer: 5.55 µM

Question: How did the AC50 turn out when `CC1=C/C(=N\NC(=S)Nc2cccnc2)CC(C)(C)C1` was run?
Answer: 11 µM

Question: Which AC50 does the source give for `CC(C)CN=C(NS(=O)(=O)c1ccccc1)C(Cl)(Cl)Cl` here?
Answer: 11.1 µM

Question: `C=C1CCC[C@]2(C)C[C@H]3OC(=O)C(CN4CCCCC4CO)[C@H]3CC12` (stereo partly specified) was tested. Which AC50 did it give?
Answer: 11 µM

Question: With `COC1=C(c2ccccc2)C(=O)c2ccccc2C1=O` as the compound, how does the AC50 read?
Answer: 9.05 µM

Question: Which AC50 does the source give for `O=C(N/N=C/c1ccc([N+](=O)[O-])o1)c1sc2ccccc2c1Cl` here?
Answer: 4.61 µM

Question: `Cc1nc(C)c(C(=O)N/N=C/c2cc(Br)ccc2O)s1` was tested. Which AC50 did it give?
Answer: 3.66 µM

Question: With `CCCN(CCC)C1=CC(=[N+]2CCCC2)CC(C)(C)C1` as the compound, how does the AC50 read?
Answer: 2.02 µM

Question: `CCCCN1C=CC(=C2C(=O)c3ccccc3C2=O)C=C1` was tested. Which AC50 did it give?
Answer: 0.921 µM

Question: For `O=C(c1ccc([N+](=O)[O-])s1)N1CCCc2ccccc21`, which AC50 is on record?
Answer: 11.2 µM

Question: `COc1cccc2sc(N(CCCN(C)C)C(=O)C(c3ccccc3)c3ccccc3)nc12` was tested. Which AC50 did it give?
Answer: 15.1 µM

Question: For `COc1ccc(C(=O)/C=C/C(=O)N(CC(=O)NC2CCCCC2)Cc2ccccc2)c(O)c1`, which AC50 is on record?
Answer: 5.24 µM

Question: Which AC50 does the source give for `O=C(c1nnsc1S(=O)(=O)c1ccc(Cl)cc1)N1CCOCC1` here?
Answer: 9.51 µM

Question: How did the AC50 turn out when `O=C(C#Cc1ccccc1)c1cccc([N+](=O)[O-])c1` was run?
Answer: 3.62 µM

Question: For `C=CCN=C1NN=C(c2ccc3c(c2)OCCO3)CS1`, which AC50 is on record?
Answer: 3.37 µM

Question: Which AC50 does the source give for `COC(=O)c1ccc(Nc2cc(C)nc3ccc(C)cc23)cc1` here?
Answer: 6.85 µM

Question: Which AC50 does the source give for `CCOc1cc(NC(=O)CCl)c(OCC)cc1NC(=O)CCl` here?
Answer: 5.5 µM

Question: `Cc1scc(C(=O)N/N=C/c2ccc([N+](=O)[O-])o2)c1C` was tested. Which AC50 did it give?
Answer: 2.19 µM
